The values below come from patent US11700767B2, “Condensed cyclic compound, composition including the condensed cyclic compound, and organic light-emitting device including the composition” (SAMSUNG ELECTRONICS CO., LTD., priority 2017, dated 2023).

The structures appear in SMILES notation.

A short description of this series: Measurement of solubility in methyl benzoate (Evaluation Example 1). The class given is physicochemical. To be noted: for solubility in an organic solvent, as compared with host-c: qualitative statement referring to Table 1; for Solubility: solvent methyl benzoate, room temperature, ultrasonic irradiation, visual check. Here is the method:
50 milligrams (mg) of Compound 1-1 and 450 mg of methyl benzoate (solvent) were added to a colorless sample bottle, the mixture was irradiated with ultrasonic waves at room temperature for 5 minutes, and the presence or absence of Compound 1-1 was visually confirmed. […] If Compound 1-1 remained, a small amount of the solvent was added, the irradiation with ultrasonic waves was repeated, and an amount of the solvent was measured until Compound 1-1 was completely dissolved. The solubility was calculated from an amount of the solvent finally used. The solubility values of Compound 1-2 and host-c were calculated in the same manner.

With `c1ccc(-c2cccc(-c3cccc(-c4ccc5c(c4)c4ccccc4n5-c4ccc(-c5cccc(-c6cc(-c7ccc(-c8cccc(-c9nc(-c%10ccccc%10)nc(-c%10ccccc%10)n9)c8)cc7)c7oc8ccccc8c7c6)c5)cc4)c3)c2)cc1` [Compound 1-1], the “solubility in an organic solvent, as compared with host-c” value is on record as “high solubility” and the Solubility turned out to be 4 weight %.

`c1ccc(-c2cccc(-c3cccc(-c4ccc5c(c4)c4ccccc4n5-c4ccc(-c5cccc(-c6cc(-c7cccc(-c8cccc(-c9cccc(-c%10nc(-c%11ccccc%11)nc(-c%11ccccc%11)n%10)c9)c8)c7)c7oc8ccccc8c7c6)c5)cc4)c3)c2)cc1` [Compound 1-2]: the “solubility in an organic solvent, as compared with host-c” value is on record as “high solubility” and the Solubility was determined as 4 weight %.

For the molecule `c1ccc(-c2nc(-c3ccccc3)nc(-c3cc(-n4c5ccccc5c5ccccc54)cc4c3oc3ccccc34)n2)cc1` [host-c, reference compound], the Solubility came to 0.1 weight %.
